From patent publication US20240060072A1, “METHOD AND COMPOSITION FOR TREATING NON-ALCOHOLIC FATTY LIVER DISEASE, ASSOCIATED CONDITIONS AND SYMPTOMS” (THE HONG KONG POLYTECHNIC UNIVERSITY, priority 2022, published 2024)

Assays:
HFD-fed mice = experiment: CCl4 or STZ treatment of HFD-fed mice: hepatic mRNA by RT-qPCR; type: in vivo, mouse; details: compared to untreated HFD-fed mice
SCD1 [1] = experiment: SCD1 inhibitor MK8245 in HFD-fed rAAV-GPR110 mice: circulating lipids, liver enzymes, hepatic steatosis
Experimental: In general, 8-week-old C57BL/6J male mice were housed in pathogen-free conditions at controlled temperature with a 12-hour light-dark cycle and access to food and water ad libitum. […] Briefly, mice were tail vein injected with 3×10^11 rAAV2/8 vector harboring either green fluorescent protein (GFP) or GPR110. […] All measurements were carried out in a randomized order.
Typically, for plasma and hepatic lipid level, serum levels of triglyceride (TG) and total cholesterol (CHO) were measured using commercial kit (Biosino, biotechnology and science INC, China) according to the manufacturer's instructions. Hepatic lipids were extracted using Folch methodology and liver extract was dissolved in ethanol for TG and CHO measurements. Both serum and hepatic levels of free fatty acid (FFA) were measured using commercial kit (Solarbio, China).
Typically, for liver function assay, the alanine aminotransferase (ALT) and aspartate aminotransferase (AST) levels were measured in serum using commercial kits (Stanbio, USA).

SCD1 [2] = experiment: SCD1 inhibitor MK8245 in HFD-fed rAAV-GPR110 mice: GPR110 expression, body weight, glucose homeostasis; type: in vivo, mouse
Experimental: FIG. 10A schematically depicts a scheme of different treatments to a mouse model according to certain embodiments, where eight-week-old male C57BL/6J mice were infected with either 3×10^11 copies of rAAV encoding GPR110 (rAAV-GPR110) via i.v. or control (rAAV-GFP) via i.v. after 8-week HFD feeding, and then 2 weeks after infection treated with SCD1 inhibitor, MK8245, at 10 mg/kg/week via oral administration (p.o.) or inhibitor vehicle (inhibitor-Veh.) via p.o.;
To evaluate the impacts of high hepatic GPR110 level on liver metabolism, GPR110 was overexpressed in the hepatocytes of HFD-fed mice by liver-directed rAAV/thyroxine binding globulin (TBG)-mediated gene expression system (FIGS. 2A and 3A). In general, 8-week-old C57BL/6J male mice were housed in pathogen-free conditions at controlled temperature with a 12-hour light-dark cycle and access to food and water ad libitum. The 8-week-old male mice were divided into two groups and fed with high-fat diet (HFD, 20% protein, 45% fat, 35% carbohydrates, Research Diets Inc., New Brunswick, NJ, USA), or standard chow diet (STC, 18.3% protein, 10.2% fat, 71.5% carbohydrates, Research Diet Inc., New Brunswick, NJ, USA) in some other examples, for 8 weeks. The recombinant adeno-associated virus vector rAAV2/8 transduction was conducted as described previously (Lee et al, 2016; Cheng et al, 2022). Briefly, mice were tail vein injected with 3×10^11 rAAV2/8 vector harboring either green fluorescent protein (GFP) or GPR110. In other examples, for antisense oligonucleotide (ASO) delivery, validated ASOs against mouse GPR110 were provided by Ionis Pharmaceuticals and injected subcutaneously once a week at 5 mg/kg body weight to the mice. In some other examples, for SCD1 inhibitor delivery, MK-8245 (MedChemExpress, NJ, USA) was gavage at 10 mg/kg once a week. All measurements were carried out in a randomized order. Typically, glucose profile measurement was performed in terms of the blood glucose and insulin level by collecting the blood samples from the tip of the tail of the mouse models using a glucometer. For the glucose tolerance test (GTT), insulin tolerance test (ITT) and pyruvate tolerance test (PTT), mice were fasted overnight prior to intraperitoneal injection of glucose (1 g/kg body weight (BW)) (Sigma, St. Louis, MO), 0.75 U/kg BW insulin (Novolin R, Novo Nordisk, Bagsvaerd, Denmark) or 1 g/kg BW pyruvate (Sigma, St. Louis, MO). Blood glucose levels were measured from the tip of tail vein at 15, 30, 60, 90 and 120 minutes after injection.

mouse SCD1 promoter = experiment: SCD1 promoter luciferase reporter assay and RT-qPCR in HEK293 cells; type: cell-based; details: DHEA 100 μM for 24 h
Experimental: In vitro luciferase reporter assay was performed to further validate the expression of SCD1 is transcriptional regulated by GPR110. Plasmid harbouring luciferase gene driven by the mouse SCD1 promoter (−2000 to +100) was constructed to transfect into HEK293 cells. Typically, HEK293 cells were cultured in DMEM supplemented with 10% FBS, 100 U/ml penicillin and 100 μg/ml streptomycin at 37° C. and 5% CO2, and then seeded in 6-well plates followed by transfection with pGL3-SCD1 promoter and adenoviral vector expressing either GPR110 (ADV-GPR110) or GFP (ADV-GFP) by using the transfection reagent (#E4981, Promega, WI, USA). There was no change of luciferase activity of pGL3- SCD1 promoter-luciferase transfected HEK293 cells under the treatment of GPR110 ligand DHEA, unless the HEK293 cells were pre-infected with adenovirus overexpressing GPR110 (ADV-GPR110; FIG. 9C). The overexpression of GPR110 in ADV-GPR110 infected cells and inductions of SCD1 mRNA expression by treatment of DHEA were also validated by RT-qPCR (FIG. 9D). The changes in hepatocyte lipid profiles by the expression level of GPR110 and SCD1 were also checked. In agreement with the in vivo data, the overexpression of GPR110 increased the intracellular CHO (FIG. 9E), TG (FIG. 9F) and FFA (FIG. 9G). […] In summary, the transcription level of SCD1 is regulated by GPR110. […]

[3] = HFD-fed rAAV-GPR110 mice, 10 mg/kg/week p.o.
[4] = compared to the rAAV-GPR110 littermates
[5] = HFD-fed rAAV-GPR110 mice, vs untreated littermates
[6] = rAAV-GPR110 mice, chronic treatment for 11 weeks, 10 mg/kg/week p.o.

What does the source list for `ClC(Cl)(Cl)Cl` [CCl4]?
SCD1 mRNA expression level (HFD-fed mice): significantly higher; expression of hepatic GPR110 mRNA (HFD-fed mice): significantly increased

What does the source list for `CN(N=O)C(=O)N[C@@H]1[C@@H](O)[C@H](O)[C@@H](CO)O[C@@H]1O` [STZ]?
SCD1 mRNA expression level (HFD-fed mice): significantly higher; expression of hepatic GPR110 mRNA (HFD-fed mice): significantly increased

Which results are given for `O=C(O)Cn1nnc(-c2cc(N3CCC(Oc4cc(F)ccc4Br)CC3)no2)n1` [MK8245, 5-[3-[4-(2-bromo-5-fluorophenoxy)-1-piperidinyl]-5-isoxazolyl]-2H-tetrazole-2-acetic acid]?
HDL (SCD1 [1]; HFD-fed rAAV-GPR110 mice): relatively higher; LDL level (SCD1 [1]; HFD-fed rAAV-GPR110 mice): no differences detected; circulating FFA level (SCD1 [1]; HFD-fed rAAV-GPR110 mice): no change; severity of fibrosis (SCD1 [1]; HFD-fed rAAV-GPR110 mice): partially reduced; circulating CHO level (SCD1 [1]; [3]): lowered; circulating TG level (SCD1 [1]; [3]): lowered; ALT level (SCD1 [1]; [4]): alleviated; AST level (SCD1 [1]; [4]): alleviated; body weight (SCD1 [2]; HFD-fed rAAV-GPR110 mice, 10 mg/kg/week p.o., vs untreated littermates): lowered; HOMR-IR (SCD1 [2]; [5]): improved; fasting glucose level (SCD1 [2]; [5]): improved; insulin sensitivity by ITT (SCD1 [2]; [5]): no change; performance in GTT (SCD1 [2]; [5]): improved; performance in PTT (SCD1 [2]; [5]): improved; expression of GPR110 mRNA (SCD1 [2]; [6]): did not affect; expression of GPR110 protein (SCD1 [2]; [6]): did not affect

For `CC/C=C\C/C=C\C/C=C\C/C=C\C/C=C\C/C=C\CCC(=O)NCCO` [DHEA], which “SCD1 mRNA expression” value (mouse SCD1 promoter; ADV-GPR110 infected HEK293 cells, RT-qPCR) is on record?
Its value is “inductions”.

And the “luciferase activity of pGL3-SCD1 promoter-luciferase” value (mouse SCD1 promoter; HEK293 cells not pre-infected with ADV-GPR110)?
Its value is “no change”.
